Reference: PMC6165285, “α-Glucosidase Inhibitors: Diphenyl Ethers and Phenolic Bisabolane Sesquiterpenoids from the Mangrove Endophytic Fungus Aspergillus flavus QQSG-3” (Marine Drugs, 2018)
Entries after “also recorded” stand apart in the source; their conditions may differ.

Target: α-glucosidase (Saccharomyces cerevisiae, UniProt P53341)
Experiment: α-Glucosidase inhibitory activity (p-nitrophenyl-α-glucopyranoside substrate, absorbance at 405 nm)
Format: biochemical
Conditions: compared to the positive control acarbose
Experimental: α-Glucosidase was assayed according to standard procedures. […] Ten microliters of testing materials (in triplicate) were incubated for 10 min with 20 μL of enzyme stock solution and 60 μL of PBS. After incubation, 10 μL of substrate was added and incubated for 20 min at 37 °C. Absorbance at 405 nm was then determined.
The inhibitory activity of the isolates was determined as a percentage in comparison to a blank (DMSO) according to the following equation: %αGHY=(1−A405t/A405c)×100% where %αGHY is the percentage of inhibition, A405t is the corrected absorbance of the compound under testing (A405end − A405initial), and A405c is the absorbance of the blank (A405endblank − A405initialblank). The IC50 values of compounds were calculated by the nonlinear regression analysis.

Chain of α-glucosidase (P53341 whole entry): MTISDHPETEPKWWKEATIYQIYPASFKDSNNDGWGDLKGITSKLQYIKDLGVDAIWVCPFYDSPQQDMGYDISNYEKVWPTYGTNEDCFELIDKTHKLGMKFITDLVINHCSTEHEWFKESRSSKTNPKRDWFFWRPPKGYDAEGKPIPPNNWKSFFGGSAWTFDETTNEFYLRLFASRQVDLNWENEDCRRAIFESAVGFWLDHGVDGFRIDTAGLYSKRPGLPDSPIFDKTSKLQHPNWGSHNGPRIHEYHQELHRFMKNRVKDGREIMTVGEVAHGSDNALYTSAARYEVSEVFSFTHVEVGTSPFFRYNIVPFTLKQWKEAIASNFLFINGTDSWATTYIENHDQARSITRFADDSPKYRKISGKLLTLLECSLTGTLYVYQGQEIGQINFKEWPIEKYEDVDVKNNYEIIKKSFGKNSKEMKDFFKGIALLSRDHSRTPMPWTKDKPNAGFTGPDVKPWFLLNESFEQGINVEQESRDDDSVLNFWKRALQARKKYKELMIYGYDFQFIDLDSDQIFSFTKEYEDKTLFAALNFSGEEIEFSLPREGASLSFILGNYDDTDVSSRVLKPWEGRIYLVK

Row | Structure (SMILES) | α-glucosidase inhibitory activity, result in words
1 | Cc1cc(O)cc(Oc2cc(C)cc(OCc3ccc([C@@](C)(O)CCCC(C)C)c(O)c3)c2)c1 [Compound 10, peniciaculin A] | strong inhibitory activity; also recorded: strong inhibitory effects
2 | C/C(=C\CCC(C)C)c1ccc(Cc2c(C)cc(Oc3cc(C)cc(O)c3)cc2O)cc1O [Compound 11, expansol D] | strong inhibitory activity; also recorded: strong inhibitory effects
3 | CC(C)CCCC(C)(O)c1ccc(COCc2ccc(C(C)(O)CCCC(C)C)c(O)c2)cc1O (stereo not drawn) [Compound 5] | strong inhibitory activity; also recorded: strong inhibitory effects
4 | Cc1cc(O)cc(Oc2cc(C)c(C(=O)OCC(O)C(O)CO)c(O)c2)c1 (stereo not drawn) [Compound 2] | better than that of acarbose
5 | C/C(=C\CCC(C)C)c1ccc(Cc2cc(C)cc(O)c2O)cc1O [Compound 3] | strong inhibitory activity; also recorded: strong inhibitory effects
6 | Cc1cc(O)cc(Oc2cc(C)c(O)c(O)c2)c1 [Compound 1] | better than that of acarbose
